# According to ChEMBL document CHEMBL5500393, “Discovery and Optimization of Novel SaFabI Inhibitors as Specific Therapeutic Agents for MRSA Infection” (J Med Chem, 2024):
# Experiments:
# [1] = molecular target: T1, Enoyl-[acyl-carrier-protein] reductase [NADPH] FabI (Staphylococcus aureus) (UniProt Q6GI75); assay: Inhibition of N-terminal his 6 tagged Staphylococcus aureus Fabi (1 to […] residues) expressed in Escherichia coli BL21 at 10 uM incubated for 30 mins in presence of NADPH by fluorescence based microplate reader analysis relative to control
# T1 sequence (whole entry): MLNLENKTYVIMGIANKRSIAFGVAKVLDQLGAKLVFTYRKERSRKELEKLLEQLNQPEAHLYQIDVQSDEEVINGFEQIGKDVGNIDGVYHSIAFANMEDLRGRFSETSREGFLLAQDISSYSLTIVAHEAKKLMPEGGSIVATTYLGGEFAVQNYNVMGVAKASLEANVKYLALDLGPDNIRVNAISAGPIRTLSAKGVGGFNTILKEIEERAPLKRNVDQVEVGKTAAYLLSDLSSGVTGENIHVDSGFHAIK
# [2] = molecular target: T1, Enoyl-[acyl-carrier-protein] reductase [NADPH] FabI (Staphylococcus aureus); assay: Inhibition of N-terminal his 6 tagged Staphylococcus aureus Fabi (1 to […] residues) expressed in Escherichia coli BL21 at 1 uM incubated for 30 mins in presence of NADPH by fluorescence based microplate reader analysis relative to control
# [3] = molecular target: T2, Enoyl-[acyl-carrier-protein] reductase [NADPH] FabI (Staphylococcus aureus, UniProt Q6GI75); assay: Inhibition of N-terminal his 6 tagged Staphylococcus aureus Fabi (1 to […] residues) expressed in Escherichia coli BL21 incubated for 30 mins in presence of NADPH by fluorescence based microplate reader analysis
# T2 sequence (Q6GI75 whole entry): T1 sequence (whole entry)
# [4] = tested on: Staphylococcus aureus; assay: Antimicrobial activity against […] Staphylococcus aureus ATCC33591 measured after 24 hrs by CLSI protocol based microdilution method; type: functional
# [5] = tested on: Staphylococcus aureus; assay: Antimicrobial activity against […] Staphylococcus aureus ATCC43300 measured after 24 hrs by CLSI protocol based microdilution method; type: functional
# [6] = tested on: Staphylococcus aureus; assay: Antimicrobial activity against […] Staphylococcus aureus USA300 measured after 24 hrs by CLSI protocol based microdilution method; type: functional
# [7] = tested on: Staphylococcus aureus; assay: Antimicrobial activity against […] Staphylococcus aureus NRS271 measured after 24 hrs by CLSI protocol based microdilution method; type: functional
# [8] = tested on: Staphylococcus aureus; assay: Antimicrobial activity against methicillin-susceptible Staphylococcus aureus ATCC29213 measured after 24 hrs by CLSI protocol based microdilution method; type: functional
# [9] = tested on: Staphylococcus aureus; assay: Antimicrobial activity against methicillin-susceptible Staphylococcus aureus ATCC25923 measured after 24 hrs by CLSI protocol based microdilution method; type: functional
# [10] = tested on: Enterococcus faecium; assay: Antimicrobial activity against Enterococcus faecium ATCC19434 measured after 24 hrs by CLSI protocol based microdilution method; type: functional
# [11] = tested on: Enterococcus faecalis; assay: Antimicrobial activity against Enterococcus faecalis ATCC29212 measured after 24 hrs by CLSI protocol based microdilution method; type: functional
# [12] = tested on: Pseudomonas aeruginosa; assay: Antimicrobial activity against Pseudomonas aeruginosa PAO1 measured after 24 hrs by CLSI protocol based microdilution method; type: functional
# [13] = tested on: Escherichia coli; assay: Antimicrobial activity against Escherichia coli ATCC25922 measured after 24 hrs by CLSI protocol based microdilution method; type: functional
# [14] = tested on: Acinetobacter baumannii; assay: Antimicrobial activity against Acinetobacter baumannii ATCC19606 measured after 24 hrs by CLSI protocol based microdilution method; type: functional
# [15] = tested on: Candida albicans; assay: Antimicrobial activity against Candida albicans SC5314 measured after 48 hrs by CLSI protocol based microdilution method; type: functional
SMILES,inhibition [1] [%],inhibition [2] [%],IC50 [3] [nM],MIC [4] [µg/mL],MIC [5] [µg/mL],MIC [6] [µg/mL],MIC [7] [µg/mL],MIC [8] [µg/mL],MIC [9] [µg/mL],MIC [10] [µg/mL],MIC [11] [µg/mL],MIC [12] [µg/mL],MIC [13] [µg/mL],MIC [14] [µg/mL],MIC [15] [µg/mL]
COc1cccc(N2CC(c3nc4ccccc4n3C)CC2=O)c1C (stereo not given),88.2,27.9,2270,> 32,32,16,16,16,32,> 32,> 32,> 32,> 32,> 32,> 32
CCCn1c(C2CC(=O)N(c3cccc(Br)c3C)C2)nc2ccccc21 (stereo not given),99.5,57.6,745,8,4,8,8,4,4,> 32,> 32,> 32,> 32,> 32,> 32
Cn1c(C2CC(=O)N(c3cccc(Cl)c3Br)C2)nc2ccccc21 (stereo not given),95.8,46,230,8,16,6,16,8,16,> 32,> 32,> 32,> 32,> 32,> 32
Cn1c(C2CC(=O)N(c3cccc(Br)c3O)C2)nc2ccccc21 (stereo not given),94.1,28.5,1880,16,16,16,32,16,32,> 32,> 32,> 32,> 32,> 32,> 32
Cc1c(Br)cccc1N1CC(c2nc3ccccc3n2C(C)C)CC1=O (stereo not given),87,21.1,1730,16,16,16,32,8,16,> 32,> 32,> 32,> 32,> 32,> 32
Cc1ccccc1N1CC(c2nc3ccccc3n2C)CC1=O (stereo not given),85.2,18.3,2410,16,32,32,16,16,32,> 32,> 32,> 32,> 32,> 32,> 32
Cc1c(O)cccc1N1CC(c2nc3ccccc3n2C)CC1=O (stereo not given),96.9,61.7,650,4,8,8,8,8,8,> 32,> 32,> 32,> 32,> 32,> 32
Cn1c(C2CC(=O)N(c3cccc(Cl)c3)C2)nc2ccccc21 (stereo not given),69.6,12.8,3530,32,> 32,32,32,32,> 32,> 32,> 32,> 32,> 32,> 32,> 32
Cc1cccc(N2CC(c3nc4ccccc4n3C)CC2=O)c1Cl (stereo not given),95.2,47.3,1180,8,8,16,8,8,16,> 32,> 32,> 32,> 32,> 32,> 32
